Legend:
[1] = tested on: adhesion between vascular endothelial cells and HL-60 cells; experiment: Adhesion of HL-60 cells to TNF-α-stimulated vascular endothelial cells; assay type: cell-based, Human; details: for Adhesion rate: TNF-α-stimulated endothelial cells; for Suppression of TNF-α-induced increase in adhesion rate (statement): 10^−7 to 10^−4 M, dose-dependent
Procedure: Human vascular endothelial cells (sold by Sanko Junyaku) suspended in RPMI-1640 medium (Gibco) containing 10% FCS (HyClone) at a concentration of 1×10^5 cells/ml. 100 μl/well of the suspension was seeded into a 96-well microtiter plate.
100 U/ml of human recombinant TNF-α (Promega) was added to monolayer of vascular endothelial cells after incubation at 37° C. for 2 days in a 5% CO2 incubator. The plate was incubated 37° C. for 6 hours in a 5% CO2 incubator to prepare vascular endothelial cells stimulated with TNF-α.
On the other hand, cyclopentenone, GM or dipropionylcyclopentenone at a varying concentration was added to HL-60 cells suspended in RPMI-1640 medium containing 10% FCS at a concentration of 1×10^6 cells/ml. The cells were cultured at 37° C. for 3 hours in a 5% CO2 incubator. After cultivation, 5 μM of 5(-and-6)-carboxyfluorescein diacetate, succinimide ester (Molecular Probe) as a fluorescent agent was added thereto and reacted at 37° C. for 10 minutes. The cells were washed twice with RPMI-1640 medium and suspended in RPMI-1640 medium containing 10% FCS to prepare a suspension of fluorescence-labeled HL-60 cells at a concentration of 1×10^6 cells/ml.
100 μl/well of the fluorescence-labeled HL-60 cells were overlaid onto the vascular endothelial cells stimulated with TNF-α. Cyclopentenone, GM or dipropionylcyclopentenone at a varying concentration was added thereto. The plate was incubated at 37° C. for 20 minutes in a 5% CO2 incubator for adhesion reaction between vascular endothelial cells and HL-60 cells.
After the adhesion reaction, the plate was washed to remove non-adhesive cells. 1% Triton X (Nacalai Tesque) was added thereto to destroy adhesive cells. The fluorescence intensity was measured using filters for 485/22 nm (excitation) and 530/25 nm (emission).
The adhesion rate which represents the ratio of cells adhered to vascular endothelial cells was determined defining the fluorescence intensity for 1×10^5 fluorescence-labeled cells as 100%.

[2] = tested on: spleen lymphocytes stimulated with Ehrlich ascites carcinoma cells; experiment: Cancer cell-specific proliferation of spleen lymphocytes from treated tumor-bearing mice; assay type: in vivo, ddY mice; details: for Growth of spleen lymphocytes on stimulation with cancer cells (statement): mice administered intraperitoneally
Procedure: ddY mice (female, 7 weeks old) were purchased from Japan SLC and pre-bred 1 week before using in experiments.
1×10^6 Ehrlich ascites carcinoma cells were intraperitoneally inoculated to each mouse. 10 mg/kg of cyclopentene, 30 mg/kg of GM or 10 mg/kg of dipropionylcyclopentene was intraperitoneally administered to the mouse on the day after the inoculation. Saline was administered to a control mouse.
(§1) A spleen was taken out from the mouse 10 days after the inoculation with cancer cells, finely minced and suspended in RPMI-1640 medium (Gibco) containing 10% FCS (HyClone) to obtain a single cell suspension. Adhesive cells in the cell suspension adhered to a plastic Petri dish were removed and non-adhesive cells were used as spleen lymphocytes.
The spleen lymphocytes were suspended in RPMI-1640 medium containing 10% FCS at a concentration of 2×10^6/ml. 100 μl/well of the suspension was seeded into a microtiter plate.
Stimulated cells were prepared as follows. Mitomycin C (Kyowa Hakko Kogyo) was added to a concentration of 50 μg/ml to Ehrlich ascites carcinoma cells suspended in RPMI-1640 medium at a concentration of 2×10^6 cells/ml. The cells were treated at 37° C. for 30 minutes, washed twice and then suspended in RPMI-1640 medium containing 10% FCS to prepare stimulated cells at a concentration of 2×10^6 cells/ml. 100 μl of the thus prepared stimulated cells was overlaid onto each well of the plate into which 100 μl/well of the spleen lymphocytes had been added. The plate was incubated at 37° C. for 5 days in a 5% CO2 incubator. 37 kBq of ^3H-thymidine (Daiichi Pure Chemicals) was added to the well to pulse-label the cells on the day before the completion of the cultivation. After cultivation, the cells were harvested on a glass filter to measure the radioactivity.

NK cells = assay type: in vivo, ddY mice; details: mice administered intraperitoneally
Procedure: ddY mice (female, 7 weeks old) were purchased from Japan SLC and pre-bred for 1 week before using in experiments.
1×10^6 Ehrlich ascites carcinoma cells were intraperitoneally inoculated to each mouse. 10 mg/kg of cyclopentenone, 30 mg/kg of GM or 10 mg/kg of dipropionylcyclopentenone was intraperitoneally administered to the mouse on the day after the inoculation. Saline was administered to a control mouse.
as §1, with “medium” for “medium (Gibco)”, “cells” for “cells in the cell suspension”, “removed from the cell suspension” for “removed”, “NK cells.” for “spleen lymphocytes.”
The NK cells were suspended in RPMI-1640 medium containing 10% FCS at a concentration of 6×10^6/ml. 100 μl/well of the suspension was seeded into a microtiter plate.
Target cells were prepared as follows. 3700 kBq of ^51Cr (Amersham) was added to 1×10^6 YAC-1 cells (Dainippon Pharmaceutical). The cells were cultured at 37° C. for 1 hour for labeling. The labeled cells were washed twice and then suspended in RPMI-1640 medium containing 10% FCS at a concentration of 2×10^5 cells/ml. […] The radioactivity (experimental value) was measured using an auto gamma counter.
100 μl of the culture medium was added to the reaction system in place of the NK cells and the radioactivity was measured in order to measure the radioactivity spontaneously released from the target cells (control value).
Furthermore, the radioactivity released into the supernatant when 1% Triton (Nacalai Tesque) was added to the reaction system to lyse the 51Cr-labeled YAC-1 cells was measured in order to measure the total radioactivity contained in the reaction system (total radioactivity value).
The cytotoxicity (%) specifically mediated by the NK cells can be determined according to the following equation.
Cytotoxicity (%)=[(experimental value−control value)/(total radioactivity value−control value)]×100

topoisomerase II = biological target: T1, topoisomerase II (Homo sapiens, UniProt P11388); experiment: Topoisomerase II inhibition, pBR322 DNA relaxation; assay type: biochemical; details: 37° C., 30 minutes
T1 construct: purchased TopoGEN
T1 sequence (P11388 whole entry): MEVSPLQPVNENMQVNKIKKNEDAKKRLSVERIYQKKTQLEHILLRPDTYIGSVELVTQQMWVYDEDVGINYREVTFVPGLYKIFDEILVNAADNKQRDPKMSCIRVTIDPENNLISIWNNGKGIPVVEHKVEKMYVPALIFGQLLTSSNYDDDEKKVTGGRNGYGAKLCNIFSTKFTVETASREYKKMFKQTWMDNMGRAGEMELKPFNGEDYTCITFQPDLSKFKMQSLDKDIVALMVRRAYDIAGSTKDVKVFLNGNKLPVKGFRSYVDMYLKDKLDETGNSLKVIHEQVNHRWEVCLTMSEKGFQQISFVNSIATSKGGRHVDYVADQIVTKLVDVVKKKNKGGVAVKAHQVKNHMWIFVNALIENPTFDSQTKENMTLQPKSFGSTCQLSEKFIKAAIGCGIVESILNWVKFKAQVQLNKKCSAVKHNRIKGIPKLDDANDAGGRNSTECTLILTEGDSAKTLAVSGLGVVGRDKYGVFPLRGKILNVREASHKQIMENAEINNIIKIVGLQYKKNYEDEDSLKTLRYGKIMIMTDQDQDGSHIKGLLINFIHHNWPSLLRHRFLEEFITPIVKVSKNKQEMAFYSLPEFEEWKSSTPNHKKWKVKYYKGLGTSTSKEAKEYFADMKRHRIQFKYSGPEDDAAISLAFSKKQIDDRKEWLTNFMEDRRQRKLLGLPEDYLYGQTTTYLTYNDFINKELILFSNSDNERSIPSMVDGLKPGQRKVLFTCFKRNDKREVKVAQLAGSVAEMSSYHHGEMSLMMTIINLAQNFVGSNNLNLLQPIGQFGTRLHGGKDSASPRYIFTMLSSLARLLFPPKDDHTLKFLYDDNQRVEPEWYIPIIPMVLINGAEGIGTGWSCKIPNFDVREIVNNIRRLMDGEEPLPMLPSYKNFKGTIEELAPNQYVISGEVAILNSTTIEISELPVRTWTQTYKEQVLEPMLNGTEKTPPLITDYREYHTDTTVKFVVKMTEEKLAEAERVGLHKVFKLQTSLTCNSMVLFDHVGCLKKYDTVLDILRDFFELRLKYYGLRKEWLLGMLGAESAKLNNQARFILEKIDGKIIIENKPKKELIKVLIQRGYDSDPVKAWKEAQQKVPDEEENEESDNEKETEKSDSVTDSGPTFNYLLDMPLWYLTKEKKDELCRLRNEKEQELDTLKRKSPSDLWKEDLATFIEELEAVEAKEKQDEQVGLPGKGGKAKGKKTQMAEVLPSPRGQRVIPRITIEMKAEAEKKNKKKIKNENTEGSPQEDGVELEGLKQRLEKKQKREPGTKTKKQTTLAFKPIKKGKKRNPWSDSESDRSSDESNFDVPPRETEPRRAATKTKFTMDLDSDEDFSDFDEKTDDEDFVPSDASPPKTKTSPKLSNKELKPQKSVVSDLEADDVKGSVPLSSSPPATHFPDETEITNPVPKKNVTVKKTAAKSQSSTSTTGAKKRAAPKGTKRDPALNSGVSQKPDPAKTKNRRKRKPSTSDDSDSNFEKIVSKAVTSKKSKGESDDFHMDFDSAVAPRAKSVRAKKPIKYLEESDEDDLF
Procedure: (1) 2 μl of topoisomerase II (TopoGEN; 2 units/μl), 2 μl of 10-fold concentrated buffer [0.5 M Tris-HCl (pH 8.0), 1.2 M KCl, 0.1 M MgCl2, 2.5 mM adenosine triphosphate, 5 mM dithiothreitol], 2 μl of 0.1% bovine serum albumin (Takara Shuzo), 11 μl of distilled water and 2 μl of distilled water (control) or 2 μl of one of aqueous solutions of dipropionylcyclopentenone, diisobutyrylcyclopentenone, dibenzoylcyclopentenone, dihexanoylcyclopentenone, di-2-hexenoylcyclopentenone, dimethoxyacetylcyclopentenone, dimethylfumarylcyclopentenone or dimethylmaleylcyclopentenone at varying concentrations were mixed together. 1 μl of 0.25 μg/μl pBR322 DNA (Takara Shuzo) was added thereto. The resulting mixture was reacted at 37° C. After reacting for 30 minutes, 2 μl of an aqueous solution containing 1% sodium dodecyl sulfate, 50% glycerol and 0.02% Bromophenol Blue was added thereto to stop the reaction.
20 μl of the reaction mixture was applied to 1% agarose gel prepared using agarose L03 (Takara Shuzo) and TAE buffer [40 mM Tris, 5 mM sodium acetate, 1 mm ethylenediaminetetraacetic acid disodium salt (EDTA); adjusted to pH 7.8 using acetic acid] and electrophoresed in TAE buffer. After electrophoresis, the gel was soaked in a 1 μg/ml aqueous ethidium bromide solution. The gel was exposed to ultraviolet rays to visualize the electophoretic pattern of DNA.

[3] = tested on: HL-60 (ATCC CCL-240) cells; experiment: Viability and apoptosis of HL-60 cells (Trypan Blue, optical microscope); assay type: cell-based; details: Homo sapiens, 24 hours, Trypan Blue, read-out: Viability50 (concentration that results in a viability of 50%)
Procedure: HL-60 (ATCC CCL-240) cells were cultured at 37° C. in RPMI 1640 medium (Bio Whittaker) containing 10% fetal calf serum (FCS; JRH) which had been treated at 56° C. for 30 minutes and suspended in RPMI 1640 medium at a concentration of 2.5×10^5 cells/5 ml.
10 μl each of solutions of diisobutyrylcyclopentenone, dimethoxyacetylcyclopentenone, dimethylfumarylcyclopentenone or dimethylmaleylcyclopentenone in 70% ethanol in water diluted to varying concentrations was added to 5 ml of the suspension. The mixtures were incubated at 37° C. for 24 hours in the presence of 5% Co2. 10 μl of aqueous actinomycin D (Sigma) solution (0.5 mg/ml), which is known as a reagent that induces apoptosis, was used in place of the sample and the mixture was incubated under the same conditions for confirmation.
The cultured cells were examined under an optical microscope.
Furthermore, a portion of the cells cultured as described above was stained with 0.4% Trypan Blue and examined under an optical microscope. The number of viable cells which were not stained and the number of dead cells which were stained blue were counted. The concentration of each of the samples that results in a viability of 50% (Viability50 μM) was determined.

Row | Concentration at which change of DNA from superhelical type to relaxed type was partially or completely inhibited (topoisomerase II) | IC50 [3] | Structure (SMILES) | Adhesion rate ([1]; 0.1 μM) | Adhesion rate ([1]; 1 μM) | Adhesion rate ([1]; 10 μM) | Adhesion rate ([1]; 100 μM) | Suppression of TNF-α-induced increase in adhesion rate (statement) [1] | 3H-thymidine uptake ([2]; 10 mg/kg intraperitoneal, no stimulation with cancer cell) | 3H-thymidine uptake ([2]; 10 mg/kg intraperitoneal, stimulation with cancer cell) | Growth of spleen lymphocytes on stimulation with cancer cells (statement) [2] | Activation of NK cells (statement) (NK cells) | 3H-thymidine uptake ([2]; 30 mg/kg intraperitoneal, no stimulation with cancer cell) | 3H-thymidine uptake ([2]; 30 mg/kg intraperitoneal, stimulation with cancer cell)
1 | – | – | O=C1C=CC(O)C1O (centres unmarked) [Cyclopentenone, 4,5-dihydroxy-2-cyclopenten-1-one] | 51.7% | 46.0% | 22.2% | 17.9% | suppressed | 9680 CPM | 25756 CPM | significantly enhanced | Activation of NK cells was observed | – | –
2 | ≥ 5 µM | 3.4 µM | COC(=O)/C=C\C(=O)OC1C=CC(=O)C1OC(=O)CCC(=O)OC (centres unmarked) [Dimethylmaleylcyclopentenone, dimethylmaleylcyclopentenone] | – | – | – | – | – | – | – | – | – | – | –
3 | – | – | N[C@@H](CCC(=O)N[C@@H](CSC1C=C(O)C(=O)C1)C(=O)NCC(=O)O)C(=O)O (some centres unmarked) [GM, 2-hydroxy-4-glutathion-S-yl-2-cyclopenten-1-one] | 53.9% | 48.3% | 23.9% | 16.3% | suppressed | – | – | significantly enhanced | Activation of NK cells was observed | 8700 CPM | 36291 CPM

— patent US6548543B1, “Remedies or preventives containing cyclopentenone compounds as the active ingredient” (Takara Shuzo Co., Ltd., priority 1998, dated 2003)
